Laboratory results as given in US20240245677A1, “SELECTED COMPOUNDS FOR TARGETED DEGRADATION OF BRD9” (C4 THERAPEUTICS, INC., priority 2021, published 2024).

How the values were obtained:
[1] = test system: cryopreserved hepatocytes from beagle dogs; assay: Dog Hepatocyte Stability Assay; assay type: in vitro ADME
Method: (§1) The metabolic stability of Compound 1 was evaluated using cryopreserved hepatocytes from mice, rats, dogs, cynomolgus monkeys, and humans.
(§2) 50 μL of 1 mM intermediate solutions for each test compound was prepared by adding 5 μL of 10 mM stock solution to 45 μL of a 1:1 mixture of water and acetonitrile. A 2 μM working stocks for each test compound were prepared in incubation media, InvitroGRO™ KHB (Bio IVT, Westbury, NY, USA), by adding 2 μL of 1 mM intermediate stock to 998 μL of incubation media.
(§3) To thaw the hepatocytes, InvitroGRO™ HT thawing medium (BioIVT, Westbury, NY, USA) was prewarmed to 37° C., and 48 mL of warmed thawing medium was transferred to a sterile 50 mL conical tube. The hepatocyte vial was removed from the liquid nitrogen Dewar, and gently thawed in a water bath at 37° C. for 1-2 minutes, then the contents of the vial were emptied into a conical tube with prewarmed InvitroGRO HT medium. 1 mL of prewarmed InvitroGRO HT medium was added to each emptied hepatocyte vial to resuspend any remaining cells, and the contents were pipetted into the hepatocyte suspension. The tube containing the hepatocyte suspension was centrifuged at 50*g for 5 minutes. The supernatant was removed carefully, and the remaining pellet was resuspended by adding 1 mL of incubation media, InvitroGRO KHB, and gently shaking until there were no clumps.
(§4) Cell viability was determined using the trypan blue method. 25 μL of hepatocyte cell suspension was added to a trypan blue (TB) solution (containing 775 μL InvitroGRO KHB and 200 μL of Trypan Blue). Cell count was taken using a hemacytometer.
(§5) For mouse hepatocytes, 200 μL of hepatocytes (0.8×10^6 cells/mL) were added to the wells of a 48 well plate (Catalog No. 92048, TPP Techno Plastic Products AG, Trasadingen, Switzerland) and pre-incubated for 30 minutes at 37° C. For rat, dog, monkey, […], 200 μL of hepatocytes (2×10^6 cells/mL) were added to the wells of a 48 well plate (Catalog No. 92048, TPP Techno Plastic Products AG, Trasadingen, Switzerland) and pre-incubated for 30 minutes at 37° C.
(§6) For all species of hepatocytes, once the pre-incubation period was complete, 200 μL of 2 μM working stock of test compound was added to the wells of the plate, and the plate was vortexed on a Vibramax™ 100 (P/N 544-21200-00, Heidolph Instruments GmbH & Co. KG, Schwabach, Germany) at 500 rpm in a 37° C. CO2 incubator (Model No. 51026280, ThermoFisher Scientific, Waltham, MA, USA). At each time point of 0, 15, 30, 60, 90, and 120 minutes, 50 μL of incubation mixture was precipitated with 200 μL of acetonitrile containing internal standard.
(§7) At the end of the experiment, the samples were centrifuged at 4000 rpm for 10 minutes. […]

[2] = Dog Hepatocyte Stability Assay; assay type: in vitro ADME; conditions: beagle, cryopreserved hepatocytes
Method: as §1, §2, §3, §4, §5, §6, §7

[3] = Salt and cocrystal evaluation (equilibration, cooling, slow evaporation, anti-solvent, re-equilibration); assay type: physicochemical
Method: Compound 1 was investigated with a variety of salts to find additional morphic forms and cocrystals. This salt and cocrystal investigation for Compound 1 was performed with free form Pattern A*. This is a hydrate with medium crystallinity. […] Acetone, methanol, ethyl acetate and acetonitrile were used as evaluation solvents. Five crystallization methods, including equilibration, fast cooling, slow evaporation, addition of anti-solvent and re-equilibration, were applied to obtain salt or cocrystal hits. From these investigations only one crystalline form—a urea cocrystal Form P was identified.
Based on the pKa of free form, 14 acids were selected for evaluation in acetone and methanol. About 30 mg of Compound 1 free form and 1 or 2 equivalents of salt forming agents 5 were weighed into 2 mL glass vials. 200 μL of acetone or methanol was added. […] To avoid degradation, experiments with strong acids were conducted without heating. Samples were stirred at 25° C. for 2 days. Obtained suspensions were taken out and centrifuged. Then wet cakes were dried at 25° C. under vacuum for 2 h. Obtained solids were analyzed by XRPD and results were summarized.
To obtain crystalline salts, another two solvents including ethyl acetate and acetonitrile were added as solvents. About 30 mg of Compound 1 free form and 1 or 2 equivalents of salt forming agents were weighed into 2 mL glass vials. 400 μL of ethyl acetate or 300 μL of acetonitrile was added. Samples were stirred at 25° C. for 2 days. Obtained solids were analyzed by XRPD and results were summarized.
Nicotinamide and urea were selected as crystallization agents for cocrystal evaluation. Acetone, methanol, ethyl acetate and acetonitrile were used as solvents. About 30 mg of Compound 1 free form, and 1 equivalent of crystallization agent were weighed into 2 mL glass vials. […] of acetone, 200 μL of methanol, […] of ethyl acetate or 300 µL of acetonitrile was added. Obtained suspensions were stirred at 25° C. for 2 days. Obtained solids were analyzed by XRPD and results were summarized.
Supernatants obtained from equilibration experiments were cooled to 5° C. and stirred at 5° C. for 3 days. Then obtained suspensions were centrifuged at 5° C. and solids were dried under vacuum at 25° C. for 2 h. No crystalline salt was obtained.
No crystalline hits were obtained.
Amorphous salts from above experiments were re-equilibrated at 25° C. for crystallization. No crystalline salt hits were obtained.

## COc1cc(-c2cn(C)c(=O)c(C)c2C)cc(OC)c1CN1CC[C@H](N2CCN(c3ccc(N[C@H]4CCC(=O)NC4=O)cc3F)CC2)C(F)(F)C1 [Compound 1, (S)-3-((4-(4-((S)-1-(2,6-dimethoxy-4-(1,4,5-trimethyl-6-oxo-1,6-dihydropyridin-3-yl)benzyl)-3,3-difluoropiperidin-4-yl)piperazin-1-yl)-3-fluorophenyl)amino)-piperidine-2,6-dione]
[1]
  CLh int in vivo: 11.48 mL/min/Kg body wt.
  CLhb scaled well stirred: 8.6 mL/min/kg body wt.
[2]
  half-life at 1 µM: > 2 h
[2]; read-out: CL int cells
  hepatocyte CLint at 1 µM: 1.49 µL/min/1e6 cells
[3]; 1.05 equiv. Sulfuric acid, Acetone, +200 μL EA
  Results (re-equilibration for 8 days) Acetone: Free form Pattern B*
[3]; 2.10 equiv. Hydrochloric acid, Acetone, +100 μL ACN
  Results (re-equilibration for 8 days) Acetone: +100 μL ACN, Gel-like sample
[3]; 2.10 equiv. Methanesulfonic acid, Acetone, +200 μL EA
  Results (re-equilibration for 8 days) Acetone: +200 μL EA, Gel-like sample
[3]; 2.10 equiv. Trifluoroacetic acid, Acetone, +400 μL MTBE
  Results (anti-solvent addition) A Acetone: Clear solution
[3]; 2.10 equiv. Trifluoroacetic acid, EA, +200 μL MTBE, suspension, AF = Amorphous form
  Results (anti-solvent addition) C EA, XRPD: XRPD: AF*
[3]; cooled to 5° C., 3 days, 1.05 equiv. Fumaric acid, Acetone
  Results (cooling) A Acetone: Clear Solution
[3]; cooled to 5° C., 3 days, 1.05 equiv. Sulfuric acid, Acetone
  Results (cooling) A Acetone: Clear Solution
[3]; cooled to 5° C., 3 days, 1.05 equiv. Sulfuric acid
  Results (cooling) B MeOH: Clear Solution
[3]; cooled to 5° C., 3 days, 2.10 equiv. Citric acid
  Results (cooling) B MeOH: Clear Solution
[3]; cooled to 5° C., 3 days, 2.10 equiv. Fumaric acid, Acetone
  Results (cooling) A Acetone: Clear Solution
[3]; cooled to 5° C., 3 days, 2.10 equiv. Hydrochloric acid, Acetone
  Results (cooling) A Acetone: Clear Solution
[3]; cooled to 5° C., 3 days, 2.10 equiv. Hydrochloric acid
  Results (cooling) B MeOH: Clear Solution
[3]; cooled to 5° C., 3 days, 2.10 equiv. L-Malic acid, Acetone
  Results (cooling) A Acetone: Clear Solution
[3]; cooled to 5° C., 3 days, 2.10 equiv. Maleic acid
  Results (cooling) B MeOH: Clear Solution
[3]; cooled to 5° C., 3 days, 2.10 equiv. Methanesulfonic acid
  Results (cooling) B MeOH: Clear Solution
[3]; cooled to 5° C., 3 days, 2.10 equiv. Succinic acid, Acetone
  Results (cooling) A Acetone: Clear Solution
[3]; cooled to 5° C., 3 days, 2.10 equiv. Sulfuric acid, Acetone
  Results (cooling) A Acetone: Clear Solution
[3]; cooled to 5° C., 3 days, 2.10 equiv. Sulfuric acid
  Results (cooling) B MeOH: Clear Solution
[3]; cooled to 5° C., 3 days, 2.10 equiv. Trifluoroacetic acid, ACN
  Results (cooling) D ACN: Clear Solution
[3]; cooled to 5° C., 3 days, 2.10 equiv. Trifluoroacetic acid, Acetone
  Results (cooling) A Acetone: Clear Solution
[3]; cooled to 5° C., 3 days, 2.10 equiv. Trifluoroacetic acid, EA
  Results (cooling) C EA: Clear Solution
[3]; cooled to 5° C., 3 days, 2.10 equiv. Trifluoroacetic acid
  Results (cooling) B MeOH: Clear Solution
[3]; cooled to 5° C., 3 days, 2.10 equiv. p-Toluenesulfonic acid
  Results (cooling) B MeOH: Clear Solution
[3]; equilibration, 1.05 equiv. Fumaric acid, Acetone
  Results A Acetone: Clear solution
[3]; equilibration, 1.05 equiv. Nicotinamide, Acetone
  Results A Acetone: Clear solution
[3]; equilibration, 1.05 equiv. Urea, Acetone
  Results A Acetone: Clear solution
[3]; equilibration, 2.10 equiv. Adipic acid, Acetone
  Results A Acetone: Clear solution
[3]; equilibration, 2.10 equiv. Fumaric acid, Acetone
  Results A Acetone: Clear solution
[3]; equilibration, 2.10 equiv. L-Malic acid, Acetone
  Results A Acetone: Clear solution
[3]; equilibration, 2.10 equiv. Methanesulfonic acid, EA, AF = Amorphous form
  Results C EA: AF MSA salt*
[3]; equilibration, 2.10 equiv. Succinic acid, Acetone
  Results A Acetone: Clear solution
[3]; equilibration, 2.10 equiv. Trifluoroacetic acid, ACN
  Results D ACN: Clear solution
[3]; equilibration, 2.10 equiv. Trifluoroacetic acid, Acetone
  Results A Acetone: Clear solution
[3]; equilibration, 2.10 equiv. Trifluoroacetic acid, EA
  Results C EA: Clear solution
